Measured values: US11186606B2, “Compositions and methods of modulating the immune response by activating alpha protein kinase 1” (Shanghai Yao Yuan Biotechnology Co., Ltd., priority 2017, dated 2021)

Biological target: ALPK1 (Homo sapiens, UniProt Q96QP1)
Assay: Thermal shift assay (SYPRO Orange) for binding to ALPK1
Conditions: ALPK1 7 uM
Text: The thermal shift assay is widely used to determine the binding of a molecule to a protein of interest. The assay is based on the increase in thermal energy required for denaturation of a protein where another molecule is bound to the protein. SYPRO Orange is a fluorescent compound used in the detection of thermal shift. SYPRO Orange binds to hydrophobic surfaces of the protein, and water strongly quenches its fluorescence. When the protein unfolds, the exposed hydrophobic surfaces bind the dye, resulting in an increase in fluorescence. When another molecule is bound to the protein, an increase in the temperature required for unfolding of the protein is observed.
This assay system was used to determine whether or not chemically synthesized HBP, HMP-1bP, and H1b-ADP directly bind to ALPK1. […] Only H1b-ADP induced a shift of more than 1 degree, at each of the three highest concentrations tested, 5 uM, 25 uM, and 125 uM.

Sequence of ALPK1 (Q96QP1 whole entry): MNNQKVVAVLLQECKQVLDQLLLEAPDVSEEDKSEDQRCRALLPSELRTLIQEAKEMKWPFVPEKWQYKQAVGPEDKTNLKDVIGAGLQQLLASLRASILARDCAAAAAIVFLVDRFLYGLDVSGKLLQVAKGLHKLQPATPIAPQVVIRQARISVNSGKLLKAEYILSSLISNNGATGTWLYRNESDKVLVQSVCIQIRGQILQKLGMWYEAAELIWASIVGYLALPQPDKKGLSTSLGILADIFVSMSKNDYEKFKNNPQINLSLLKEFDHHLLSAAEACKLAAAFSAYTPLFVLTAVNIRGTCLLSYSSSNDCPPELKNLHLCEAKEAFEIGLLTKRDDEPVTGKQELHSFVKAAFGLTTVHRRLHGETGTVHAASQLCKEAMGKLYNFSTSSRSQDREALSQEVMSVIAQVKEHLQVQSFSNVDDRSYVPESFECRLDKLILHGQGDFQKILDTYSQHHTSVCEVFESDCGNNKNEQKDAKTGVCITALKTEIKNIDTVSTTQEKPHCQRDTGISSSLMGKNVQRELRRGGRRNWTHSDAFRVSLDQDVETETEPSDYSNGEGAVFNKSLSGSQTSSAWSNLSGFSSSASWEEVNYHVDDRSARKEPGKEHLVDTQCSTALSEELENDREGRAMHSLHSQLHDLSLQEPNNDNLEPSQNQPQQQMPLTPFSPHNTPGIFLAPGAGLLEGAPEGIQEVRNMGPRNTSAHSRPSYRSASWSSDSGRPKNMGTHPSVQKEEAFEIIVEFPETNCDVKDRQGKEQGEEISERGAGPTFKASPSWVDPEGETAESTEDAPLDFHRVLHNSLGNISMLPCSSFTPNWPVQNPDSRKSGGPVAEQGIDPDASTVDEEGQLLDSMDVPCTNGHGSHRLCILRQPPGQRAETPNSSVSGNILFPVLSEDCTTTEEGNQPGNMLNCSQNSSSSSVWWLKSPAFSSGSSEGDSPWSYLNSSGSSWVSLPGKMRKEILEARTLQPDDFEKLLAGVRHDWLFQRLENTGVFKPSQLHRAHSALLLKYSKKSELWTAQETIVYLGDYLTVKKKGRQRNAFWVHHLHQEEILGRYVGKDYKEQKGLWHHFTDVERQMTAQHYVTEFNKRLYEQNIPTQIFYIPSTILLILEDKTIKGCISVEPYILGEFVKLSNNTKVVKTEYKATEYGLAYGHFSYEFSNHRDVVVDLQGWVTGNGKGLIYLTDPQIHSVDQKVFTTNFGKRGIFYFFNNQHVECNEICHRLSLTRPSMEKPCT

Question: For `Nc1ncnc2c1ncn2[C@@H]1O[C@H](COP(=O)(O)OP(=O)(O)O[C@@H]2O[C@H]([C@H](O)CO)[C@@H](O)[C@H](O)[C@@H]2O)[C@@H](O)[C@H]1O` [Compound H1b-ADP, D-glycero-D-manno-heptose-1β-ADP], which “thermal shift / direct binding to ALPK1” value (1 uM, 5 uM, 25 uM, or 125 uM) is on record?
Answer: able to directly bind to ALPK1

Question: What about the “thermal shift of ALPK1” value (at 5 uM, 25 uM, and 125 uM) of the same compound?
Answer: more than 1 degree
